Like-named read-outs stand apart in the source and are kept apart here.
Assays:
[1] = test system: human leucocytes; conditions: Table 11; for Count of leucocytes after 72 hours: Culture II
[2] = test system: human leucocytes; assay: in vitro; assay type: cell-based; conditions: Cultures I and II
Experimental: (§1) The cytotoxicity has been investigated on human leucocytes by means of the viability test with Trypan blue.
(§2) a. In a first experimentation cultures of leucocytes of a voluntary […] were prepared and caused to undergo incubation with phytohemagglutinin (PHA) and with different concentrations of colchicine or of its derivative (C1 = 2.5 μg/ml of culture, C3 = 10 μg/ml, C5 = 30 μg/ml, C6 = 50 μg/ml). Leucocytes only containing PHA served as controls.
(§3) After 3, 42, 68 and 72 hours of incubation a sample of each culture was contacted by a drop of Trypan blue and laid on a slide of a microscope. Then took place the counting of the dead cells (those with assumed an […] colour) and of all the cells present on the slide in order to obtain the ratio of the number of dead cells to the total number of cells. The results expressed as a rate in per cent are shown in the accompanying table 8.
(§4) b. After the experimentation which has just been described, the study of cytotoxicity has been continued with two other samples of human leucocytes still by means of the viability test with Trypan blue.
(§5) C1 = 2.5 μg/ml of culture
(§6) C6 = 50 μg/ml of culture;
(§7) and for the carboxy-1-adamantane fraction to:
(§8) C3 = 4.5 μg/ml of culture
(§9) C6 = 22.5 μg/ml of culture.
(§10) Leucocytes only containing phytohemagglutinin and others containing phytohemagglutinin and 50 μl of methanol served as controls.
(§11) The percentage of dead cells was determined after different numbers of hours of incubation.

[3] = in vitro; assay type: cell-based, human; conditions: human, leucocytes, Culture II, read-out: % of dead cells
Experimental: as §1, §2, §3, §4, §5, §6, §7, §8, §9, §10, §11

[4] = carboxy-1-adamantane C3 = 4.5 μg/ml
[5] = carboxy-1-adamantane C6 = 22.5 μg/ml

## O=C(O)C12CC3CC(CC(C3)C1)C2 [carboxy-1-adamantane]
[1]; [4]
  Count of leucocytes after 72 hours: 215,000
[1]; [5]
  Count of leucocytes after 72 hours: 230,000
[1]; very approximative
  number of leucocytes in absence or presence of substance (in words): remain substantially the same
[2]
  cytotoxicity, cultures I and II (in words): no effect until 46 hours of incubation
[3]; [4]
  cytotoxicity at 23 h: 18%
  cytotoxicity at 46 h: 12%
  cytotoxicity at 72 h: 25%
[3]; [5]
  cytotoxicity at 23 h: 14%
  cytotoxicity at 46 h: 10%
  cytotoxicity at 72 h: 25%
